Where two headings read alike, the source gives them in different places.

Drawing on patent US11453671B2, “Pyrazolopyrimidine inhibitors of JAK kinases and uses thereof” (Genentech, Inc., priority 2020, dated 2022), this text covers IC50 for 18 compounds.

Test [1] concerns JAK1 pathway: P-STAT6 in TF-1 human erythroleukemia cells + IL-13. The experiment in a line: P-STAT6 TF-1+Interleukin-13 (IL-13) assay. Format: cell-based. The note with it: IL-13 stimulation, read-out: Cellular JAK1 PSTAT6 TF-1 + IL13 IC50. The protocol: (§1) TF-1 human erythroleukemia cells (ATCC®; Manassas, Va.; Catalog No. CRL-2003™) were grown in Roswell Park Memorial Institute (RPMI) medium supplemented with 10% heat-inactivated fetal bovine serum (FBS), 2 ng/mL granulocyte-macrophage colony-stimulating factor, 1×non-essential amino acids (NEAA), and 1 mM sodium pyruvate. The day before the assay, the cultures were transferred to Opti-MEM™, 1×NEAA, 1 mM sodium pyruvate, and 0.5% charcoal-stripped FBS (starve medium). Inhibitor stock solutions (5 mM in DMSO) were serially diluted 1:2 in DMSO to generate a 10-point concentration titration (at 500×test concentration), which was further diluted by a 50-fold dilution in Assay Medium (RPMI containing 1×NEAA and 1 mM sodium pyruvate) to generate a 10×concentration titration (in 2% DMSO). The cells (300,000 cells/well in 35 μL of Assay Medium) were seeded in 384-well Greiner plates. Diluted inhibitor at 10×concentration (5 μL) was added to the cells and the plates were incubated for 30 minutes at 37° C. in a humidified incubator. Cells were stimulated with the human recombinant cytokine at the respective EC90 concentrations, as previously determined for each individual lot. For the phosphorylated signal transducer and activator of transcription 6 (P-STAT6) TF-1+Interleukin-13 (IL-13) assay, 10 μL of 250 ng/mL IL-13 (R&D Systems; Minneapolis, Minn.) was added to the cells, which were then incubated for 10 minutes at 37° C. For the P-STAT5 TF-1+Erythropoietin (EPO) assay, 10 μL of 110 IU/mL EPO (Gibco Life Technologies, Catalog No. PHC2054) was added to the cells, which were then incubated for 30 min at 37° C. For both assays, the incubation was followed by addition to the cells of 5 μL of ice-cold 10× cell lysis buffer (Cell Signaling Technologies; Danvers, Mass.; Catalog No. 9803S) containing 1 mM phenylmethylsulfonyl fluoride (PMSF). Assay plates were frozen at −80° C. for a minimum of 1 horn. In the IL-13 assay, P-STAT6 was measured by coating goat anti-rabbit (GAR) plates (Meso Scale Discovery [MSD]; Rockville, Md.; Catalog No. MSD L21RA-1) with rabbit anti-human total STAT6 antibody (Cell Signaling Technologies; Catalog No. 9362S), incubating the cell lysates in the coated plates overnight at 4° C., and then detecting with mouse anti-P-STAT6 (Tyr641) Clone 16E12 antibody (MilliporeSigma; Burlington, Mass.; Catalog No. 05-590, custom labeled by MSD with SULFO-tag) using standard MSD plate processing, washing, and detection protocols. In the EPO assay, P-STAT5 was detected using the phospho-STAT5a,b Whole Cell Lysate Kit (MSD; Catalog No. K150IGD-1). The electrochemiluminescence (ECL) signal of wells was read on the MESO SECTOR S600 (MSD) reader.

Test [2] has as its system JAK2 pathway: P-STAT5 in TF-1 human erythroleukemia cells + EPO. Nature of the test: P-STAT5 TF-1+Erythropoietin (EPO) assay. It counts as cell-based. The settings on record: EPO stimulation, read-out: Cellular JAK2 PSTAT5 TF-l + EPO IC50. The protocol: as §1

As to `Cn1cc(NC(=O)c2cnn3cccnc23)c(-c2cc(S(=O)(=O)C3CCCNC3)ccc2OC(F)F)n1` (single isomer, unassigned) [Example 37, N-[3-[2-(difluoromethoxy)-5-(3-piperidylsulfonyl)phenyl]-1-methyl-pyrazol-4-yl]pyrazolo[1,5-a]pyrimidine-3-carboxamide], the IC50 came to 51 nM in test [1] (TF-1 cells) and 38 nM in test [2] (TF-1 cells).

Take `CN(C)CCn1cc(S(=O)(=O)c2ccc(OC(F)F)c(-c3nn(C)cc3NC(=O)c3cnn4cccnc34)c2)cn1` [Example 49, N-[3-[2-(difluoromethoxy)-5-[1-[2-(dimethylamino)ethyl]pyrazol-4-yl]sulfonyl-phenyl]-1-methyl-pyrazol-4-yl]pyrazolo[1,5-a]pyrimidine-3-carboxamide]: the 50% inhibitory concentration (IC50) in test [1] (Homo sapiens, TF-1, TF-1 cells) worked out at 20 nM; in test [2] (Homo sapiens, TF-1, TF-1 cells), 34 nM.

As for `Cn1cc(NC(=O)c2cnn3cccnc23)c(-c2cc(S(=O)(=O)c3ccn(C)c(=O)c3)ccc2OC(F)F)n1` [Example 44, N-[3-[2-(difluoromethoxy)-5-[(1-methyl-2-oxo-4-pyridyl)sulfonyl]phenyl]-1-methyl-pyrazol-4-yl]pyrazolo[1,5-a]pyrimidine-3-carboxamide], the IC50 in test [1] (Homo sapiens, TF-1, TF-1 cells) worked out at 14 nM; in test [2] (Homo sapiens, TF-1, TF-1 cells) it was 15 nM.

With `Cn1cc(NC(=O)c2cnn3cccnc23)c(-c2cc(S(=O)(=O)C3CCC3)ccc2OC(F)F)n1` [Example 2, N-[3-[5-cyclobutylsulfonyl-2-(difluoromethoxy)phenyl]-1-methyl-pyrazol-4-yl]pyrazolo[1,5-a]pyrimidine-3-carboxamide], the concentration for half-maximal inhibition (IC50) in test [1] (Homo sapiens, TF-1, TF-1 cells) came out at 14 nM; in test [2] (Homo sapiens, TF-1, TF-1 cells), 12 nM.

Take `Cn1cc(NC(=O)c2cnn3cccnc23)c(-c2cc(S(=O)(=O)C3CC3)ccc2OC(F)F)n1` [Example 22, N-[3-[5-cyclopropylsulfonyl-2-(difluoromethoxy)phenyl]-1-methyl-pyrazol-4-yl]pyrazolo[1,5-a]pyrimidine-3-carboxamide]: the IC50 in test [1] (Homo sapiens, TF-1, TF-1 cells) came out at 4.6 nM; in test [2] (Homo sapiens, TF-1, TF-1 cells), 14 nM.

For `Cn1cc(NC(=O)c2cnn3cccnc23)c(-c2cc(S(=O)(=O)c3ccccc3)ccc2OC(F)F)n1` [Example 40, N-[3-[5-(benzenesulfonyl)-2-(difluoromethoxy)phenyl]-1-methyl-pyrazol-4-yl]pyrazolo[1,5-a]pyrimidine-3-carboxamide], the concentration for half-maximal inhibition (IC50) came out at 3.1 nM in test [1] (Homo sapiens, TF-1, TF-1 cells) and 6.4 nM in test [2] (Homo sapiens, TF-1, TF-1 cells).

Take `CC(CO)S(=O)(=O)c1ccc(OC(F)F)c(-c2nn(C)cc2NC(=O)c2cnn3cccnc23)c1` (single isomer, unassigned) [Example 23, N-[3-[2-(difluoromethoxy)-5-(2-hydroxy-1-methyl-ethyl)sulfonyl-phenyl]-1-methyl-pyrazol-4-yl]pyrazolo[1,5-a]pyrimidine-3-carboxamide]: the 50% inhibitory concentration (IC50) in test [1] (Homo sapiens, TF-1, TF-1 cells) turned out to be 20 nM; in test [2] (Homo sapiens, TF-1, TF-1 cells) it was 22 nM.

For the compound `Cn1cc(NC(=O)c2cnn3cccnc23)c(-c2cc(S(=O)(=O)C3COC3)ccc2OC(F)F)n1` [Example 13, N-[3-[2-(difluoromethoxy)-5-(oxetan-3-ylsulfonyl)phenyl]-1-methyl-pyrazol-4-yl]pyrazolo[1,5-a]pyrimidine-3-carboxamide], the IC50 worked out at 34 nM in test [1] (Homo sapiens, TF-1, TF-1 cells) and 28 nM in test [2] (Homo sapiens, TF-1, TF-1 cells).

In the case of `N#CCn1cc(NC(=O)c2cnn3cccnc23)c(-c2cc(S(=O)(=O)C3CC3)ccc2OC(F)F)n1` [Example 45, N-[1-(cyanomethyl)-3-[5-cyclopropylsulfonyl-2-(difluoromethoxy)phenyl]pyrazol-4-yl]pyrazolo[1,5-a]pyrimidine-3-carboxamide], the IC50 is 10 nM in test [1] (Homo sapiens, TF-1, TF-1 cells) and 38 nM in test [2] (Homo sapiens, TF-1, TF-1 cells).

For `Cn1cc(NC(=O)c2cnn3cccnc23)c(-c2cc(S(=O)(=O)c3cn[nH]c3)ccc2OC(F)F)n1` [Example 41, N-[3-[2-(difluoromethoxy)-5-(1H-pyrazol-4-ylsulfonyl)phenyl]-1-methyl-pyrazol-4-yl]pyrazolo[1,5-a]pyrimidine-3-carboxamide], the IC50 worked out at 15 nM in test [1] (Homo sapiens, TF-1, TF-1 cells) and 34 nM in test [2] (Homo sapiens, TF-1, TF-1 cells).

Turning to `Cn1cc(NC(=O)c2cnn3cccnc23)c(-c2cc(S(=O)(=O)CCO)ccc2OC(F)F)n1` [Example 5, N-[3-[2-(difluoromethoxy)-5-(2-hydroxyethylsulfonyl)phenyl]-1-methyl-pyrazol-4-yl]pyrazolo[1,5-a]pyrimidine-3-carboxamide], the concentration for half-maximal inhibition (IC50) came out at 16 nM in test [1] (Homo sapiens, TF-1, TF-1 cells) and 29 nM in test [2] (Homo sapiens, TF-1, TF-1 cells).

As for `COc1cccc(S(=O)(=O)c2ccc(OC(F)F)c(-c3nn(C)cc3NC(=O)c3cnn4cccnc34)c2)c1` [Example 12, N-[3-[2-(difluoromethoxy)-5-(3-methoxyphenyl)sulfonyl-phenyl]-1-methyl-pyrazol-4-yl]pyrazolo[1,5-a]pyrimidine-3-carboxamide], the concentration for half-maximal inhibition (IC50) in test [1] (Homo sapiens, TF-1, TF-1 cells) was 8.7 nM; in test [2] (Homo sapiens, TF-1, TF-1 cells) it was 9.1 nM.

In the case of `Cn1cc(NC(=O)c2cnn3cccnc23)c(-c2cc3c(cc2OC(F)F)NCCS3(=O)=O)n1` [Example 46, N-[3-[6-(difluoromethoxy)-1,1-dioxo-3,4-dihydro-2H-1lambda6,4-benzothiazin-7-yl]-1-methyl-pyrazol-4-yl]pyrazolo[1,5-a]pyrimidine-3-carboxamide], the IC50 in test [1] (Homo sapiens, TF-1, TF-1 cells) worked out at 27 nM; in test [2] (Homo sapiens, TF-1, TF-1 cells), 61 nM.

Consider `CS(=O)(=O)c1ccc(OC(F)F)c(-c2nn(CC#N)cc2NC(=O)c2cnn3cccnc23)c1` [Example 28, N-[1-(cyanomethyl)-3-[2-(difluoromethoxy)-5-methylsulfonyl-phenyl]pyrazol-4-yl]pyrazolo[1,5-a]pyrimidine-3-carboxamide], for which the 50% inhibitory concentration (IC50) in test [1] (Homo sapiens, TF-1, TF-1 cells) turned out to be 3.1 nM; in test [2] (Homo sapiens, TF-1, TF-1 cells), 26 nM.

With `CN(C)CCS(=O)(=O)c1ccc(OC(F)F)c(-c2nn(C)cc2NC(=O)c2cnn3cccnc23)c1` [Example 7, N-[3-[2-(difluoromethoxy)-5-[2-(dimethylamino)ethylsulfonyl]phenyl]-1-methyl-pyrazol-4-yl]pyrazolo[1,5-a]pyrimidine-3-carboxamide], the IC50 in test [1] (Homo sapiens, TF-1, TF-1 cells) was determined as 21 nM; in test [2] (Homo sapiens, TF-1, TF-1 cells), 22 nM.

`C[C@H](Cn1cc(S(=O)(=O)c2ccc(OC(F)F)c(-c3nn(C)cc3NC(=O)c3cnn4cccnc34)c2)cn1)N(C)C` [Example 59, N-[3-[2-(difluoromethoxy)-5-[1-[(2R)-2-(dimethylamino)propyl]pyrazol-4-yl]sulfonyl-phenyl]-1-methyl-pyrazol-4-yl]pyrazolo[1,5-a]pyrimidine-3-carboxamide]: the concentration for half-maximal inhibition (IC50) in test [1] (Homo sapiens, TF-1, TF-1 cells) was 13 nM; in test [2] (Homo sapiens, TF-1, TF-1 cells) it was 28 nM.

In the case of `C[C@@H](O)CS(=O)(=O)c1ccc(OC(F)F)c(-c2nn(C)cc2NC(=O)c2cnn3cccnc23)c1` (stereo in doubt) [Example 25, N-[3-[2-(difluoromethoxy)-5-[rac-(2R)-2-hydroxypropyl]sulfonyl-phenyl]-1-methyl-pyrazol-4-yl]pyrazolo[1,5-a]pyrimidine-3-carboxamide], the IC50 in test [1] (Homo sapiens, TF-1, TF-1 cells) amounted to 20 nM; in test [2] (Homo sapiens, TF-1, TF-1 cells), 39 nM.

As to `Cn1cc(S(=O)(=O)c2ccc(OC(F)F)c(-c3nn(C)cc3NC(=O)c3cnn4cccnc34)c2)cn1` [Example 35, N-[3-[2-(difluoromethoxy)-5-(1-methylpyrazol-4-yl)sulfonyl-phenyl]-1-methyl-pyrazol-4-yl]pyrazolo[1,5-a]pyrimidine-3-carboxamide], the IC50 was 5.8 nM in test [1] (Homo sapiens, TF-1, TF-1 cells) and 14 nM in test [2] (Homo sapiens, TF-1, TF-1 cells).
